Test results published in patent publication EP0454444A1, “Glutarimide derivatives and herbicides” (NISSAN CHEMICAL INDUSTRIES LTD., priority 1990, dated 1991).

Assays:
Assay in all cases: Herbicidal effect test by soil treatment
Assay type in all cases: in vivo
[1] = system: black nightshade (Solanum nigrum L.); settings: three weeks after spraying
Excerpt: (§1) In a plastic box of 15 cm length, 22 cm width and 6 cm depth, there was placed a sterilized dilvial soil, and seeds of barnyardgrass (Echinochloa crusgalli), large crabgrass (Digitaria adscendens), annual sedge (Cyperus microiria), black nightshade (Solanum nigrum L.), hairly galinosoga (Galinsoga ciliat), rorippa ssp. (Rorippa atrovirens), rice (Oryza sativa), corn (Zea mays), wheat (Triticum aestivum), soybean (Glysine max) and cotton (Gossypium herbaceum) were sown mixedly. After covering soil to about 1 cm over the seeds, herbicides were sprayed evenly on the soil surface to predetermined proportions of the active ingredient In spraying, the wettable powder, emulsifiable concentrate, dry flowable or flowable in the above formulation examples were diluted with water and sprayed over the entire surface by means of a small sprayer. Three weeks after spraying, the herbicidal effect on crop plants including rice, corn, wheat, soybean, cotton and various kinds of weeds were examined according to the judgement criteria shown below. Judgement criteria
(§2) The above growth control rates are determined by measuring the top fresh weights of the treated plants and those of the non-treated plants, and culculated from the following formula: [formula]

[2] = system: annual sedge (Cyperus microiria); settings: three weeks after spraying
Excerpt: as §1, §2

[3] = system: rorippa ssp. (Rorippa atrovirens); settings: three weeks after spraying
Excerpt: as §1, §2

[4] = system: wheat (Triticum aestivum); settings: crop plant, three weeks after spraying
Excerpt: as §1, §2

soybean (Glysine max) = settings: crop plant, three weeks after spraying
Excerpt: as §1, §2

[5] = system: large crabgrass (Digitaria adscendens); settings: three weeks after spraying
Excerpt: as §1, §2

[6] = system: cotton (Gossypium herbaceum); settings: crop plant, three weeks after spraying
Excerpt: as §1, §2

[7] = system: hairly galinosoga (Galinsoga ciliat); settings: three weeks after spraying
Excerpt: as §1, §2

corn (Zea mays) = settings: crop plant, three weeks after spraying
Excerpt: as §1, §2

rice (Oryza sativa) = settings: crop plant, three weeks after spraying
Excerpt: as §1, §2

`C#CCN1C(=O)COc2ccc(N3C(=O)CC(C(F)(F)F)CC3=O)cc21` [1-24] was tested, and the “herbicidal effect, H (Solanum nigrum L.)” value ([1]; application amount 0.4 g/a) was 5 (Growth control,rates of more than 90% (almost completely withered)), the “herbicidal effect, H (Solanum nigrum L.)” value ([1]; application amount 0.8 g/a) was 5 (Growth control,rates of more than 90% (almost completely withered)) and the “herbicidal effect, H (Solanum nigrum L.)” value ([1]; application amount 1.6 g/a) was 5 (Growth control,rates of more than 90% (almost completely withered)). For the same compound, the “herbicidal effect, K (Cyperus microiria)” value ([2]; application amount 0.4 g/a) was 5 (Growth control,rates of more than 90% (almost completely withered)), the “herbicidal effect, K (Cyperus microiria)” value ([2]; application amount 0.8 g/a) was 5 (Growth control,rates of more than 90% (almost completely withered)) and the “herbicidal effect, K (Cyperus microiria)” value ([2]; application amount 1.6 g/a) was 5 (Growth control,rates of more than 90% (almost completely withered)). For the same compound, the “herbicidal effect, I (Rorippa indica)” value ([3]; application amount 0.4 g/a) was 5 (Growth control,rates of more than 90% (almost completely withered)), the “herbicidal effect, I (Rorippa indica)” value ([3]; application amount 0.8 g/a) was 5 (Growth control,rates of more than 90% (almost completely withered)) and the “herbicidal effect, I (Rorippa indica)” value ([3]; application amount 1.6 g/a) was 5 (Growth control,rates of more than 90% (almost completely withered)). The “herbicidal effect, W (Triticum vulgare)” value ([4]; application amount 0.4 g/a) was 0 (Growth control rates of less than 5% (substantially no effect)), the “herbicidal effect, W (Triticum vulgare)” value ([4]; application amount 0.8 g/a) was 1 (Growth control rates of 5 to 20%) and the “herbicidal effect, W (Triticum vulgare)” value ([4]; application amount 1.6 g/a) was 4 (Growth control rates of 70 to 90%). For the same compound, the “herbicidal effect, S (Glysine max)” value (soybean (Glysine max); application amount 0.4 g/a) was 0 (Growth control rates of less than 5% (substantially no effect)), the “herbicidal effect, S (Glysine max)” value (soybean (Glysine max); application amount 0.8 g/a) was 0 (Growth control rates of less than 5% (substantially no effect)) and the “herbicidal effect, S (Glysine max)” value (soybean (Glysine max); application amount 1.6 g/a) was 1 (Growth control rates of 5 to 20%). For the same compound, the “herbicidal effect, M (Digitaria adscendens)” value (“herbicidal effect, M” for short) ([5]; application amount 0.4 g/a) was 5 (Growth control,rates of more than 90% (almost completely withered)), the “herbicidal effect, M” value ([5]; application amount 0.8 g/a) was 5 (Growth control,rates of more than 90% (almost completely withered)) and the “herbicidal effect, M” value ([5]; application amount 1.6 g/a) was 5 (Growth control,rates of more than 90% (almost completely withered)). The “herbicidal effect, C (Gossypium herbaceum)” value (shortened to “herbicidal effect, C”) ([6]; application amount 0.4 g/a) was 0 (Growth control rates of less than 5% (substantially no effect)), the “herbicidal effect, C” value ([6]; application amount 0.8 g/a) was 1 (Growth control rates of 5 to 20%) and the “herbicidal effect, C” value ([6]; application amount 1.6 g/a) was 3 (Growth control rates of 40 to 70%). The “herbicidal effect, D (Galinsoga ciliat)” value ([7]; application amount 0.4 g/a) was 5 (Growth control,rates of more than 90% (almost completely withered)), the “herbicidal effect, D (Galinsoga ciliat)” value ([7]; application amount 0.8 g/a) was 5 (Growth control,rates of more than 90% (almost completely withered)) and the “herbicidal effect, D (Galinsoga ciliat)” value ([7]; application amount 1.6 g/a) was 5 (Growth control,rates of more than 90% (almost completely withered)). The “herbicidal effect, T (Zea mays)” value (corn (Zea mays); application amount 0.4 g/a) was 0 (Growth control rates of less than 5% (substantially no effect)), the “herbicidal effect, T (Zea mays)” value (corn (Zea mays); application amount 0.8 g/a) was 2 (Growth control rates of 20 to 40%) and the “herbicidal effect, T (Zea mays)” value (corn (Zea mays); application amount 1.6 g/a) was 4 (Growth control rates of 70 to 90%). For the same compound, the “herbicidal effect, R (Oryza sativa)” value (rice (Oryza sativa); application amount 0.4 g/a) was 1 (Growth control rates of 5 to 20%), the “herbicidal effect, R (Oryza sativa)” value (rice (Oryza sativa); application amount 0.8 g/a) was 4 (Growth control rates of 70 to 90%) and the “herbicidal effect, R (Oryza sativa)” value (rice (Oryza sativa); application amount 1.6 g/a) was 5 (Growth control,rates of more than 90% (almost completely withered)).
In the case of `CCOC(=O)c1cc(N2C(=O)CC(c3ccccc3)CC2=O)c(F)cc1Cl` [1-29], the “herbicidal effect, H (Solanum nigrum L.)” value ([1]; application amount 1.6 g/a) was 5 (Growth control,rates of more than 90% (almost completely withered)), the “herbicidal effect, H (Solanum nigrum L.)” value ([1]; application amount 3.2 g/a) was 5 (Growth control,rates of more than 90% (almost completely withered)) and the “herbicidal effect, H (Solanum nigrum L.)” value ([1]; application amount 6.3 g/a) was 5 (Growth control,rates of more than 90% (almost completely withered)). The “herbicidal effect, K (Cyperus microiria)” value ([2]; application amount 1.6 g/a) was 5 (Growth control,rates of more than 90% (almost completely withered)), the “herbicidal effect, K (Cyperus microiria)” value ([2]; application amount 3.2 g/a) was 5 (Growth control,rates of more than 90% (almost completely withered)) and the “herbicidal effect, K (Cyperus microiria)” value ([2]; application amount 6.3 g/a) was 5 (Growth control,rates of more than 90% (almost completely withered)). The “herbicidal effect, I (Rorippa indica)” value ([3]; application amount 1.6 g/a) was 5 (Growth control,rates of more than 90% (almost completely withered)), the “herbicidal effect, I (Rorippa indica)” value ([3]; application amount 3.2 g/a) was 5 (Growth control,rates of more than 90% (almost completely withered)) and the “herbicidal effect, I (Rorippa indica)” value ([3]; application amount 6.3 g/a) was 5 (Growth control,rates of more than 90% (almost completely withered)). For the same compound, the “herbicidal effect, W (Triticum vulgare)” value ([4]; application amount 1.6 g/a) was 0 (Growth control rates of less than 5% (substantially no effect)), the “herbicidal effect, W (Triticum vulgare)” value ([4]; application amount 3.2 g/a) was 0 (Growth control rates of less than 5% (substantially no effect)) and the “herbicidal effect, W (Triticum vulgare)” value ([4]; application amount 6.3 g/a) was 0 (Growth control rates of less than 5% (substantially no effect)). The “herbicidal effect, S (Glysine max)” value (soybean (Glysine max); application amount 1.6 g/a) was 0 (Growth control rates of less than 5% (substantially no effect)), the “herbicidal effect, S (Glysine max)” value (soybean (Glysine max); application amount 3.2 g/a) was 0 (Growth control rates of less than 5% (substantially no effect)) and the “herbicidal effect, S (Glysine max)” value (soybean (Glysine max); application amount 6.3 g/a) was 0 (Growth control rates of less than 5% (substantially no effect)). The “herbicidal effect, C” value ([6]; application amount 1.6 g/a) was 0 (Growth control rates of less than 5% (substantially no effect)), the “herbicidal effect, C” value ([6]; application amount 3.2 g/a) was 0 (Growth control rates of less than 5% (substantially no effect)) and the “herbicidal effect, C” value ([6]; application amount 6.3 g/a) was 0 (Growth control rates of less than 5% (substantially no effect)). For the same compound, the “herbicidal effect, D (Galinsoga ciliat)” value ([7]; application amount 1.6 g/a) was 5 (Growth control,rates of more than 90% (almost completely withered)), the “herbicidal effect, D (Galinsoga ciliat)” value ([7]; application amount 3.2 g/a) was 5 (Growth control,rates of more than 90% (almost completely withered)) and the “herbicidal effect, D (Galinsoga ciliat)” value ([7]; application amount 6.3 g/a) was 5 (Growth control,rates of more than 90% (almost completely withered)). The “herbicidal effect, T (Zea mays)” value (corn (Zea mays); application amount 1.6 g/a) was 0 (Growth control rates of less than 5% (substantially no effect)), the “herbicidal effect, T (Zea mays)” value (corn (Zea mays); application amount 3.2 g/a) was 0 (Growth control rates of less than 5% (substantially no effect)) and the “herbicidal effect, T (Zea mays)” value (corn (Zea mays); application amount 6.3 g/a) was 0 (Growth control rates of less than 5% (substantially no effect)). For the same compound, the “herbicidal effect, R (Oryza sativa)” value (rice (Oryza sativa); application amount 1.6 g/a) was 0 (Growth control rates of less than 5% (substantially no effect)), the “herbicidal effect, R (Oryza sativa)” value (rice (Oryza sativa); application amount 3.2 g/a) was 0 (Growth control rates of less than 5% (substantially no effect)) and the “herbicidal effect, R (Oryza sativa)” value (rice (Oryza sativa); application amount 6.3 g/a) was 0 (Growth control rates of less than 5% (substantially no effect)).
